Assay results taken from patent US4327026A, “Benzodiazepine derivatives” (Hoffmann-La Roche Inc., priority 1980, dated 1982).

Columns and labels:
aldosterone = test: Aldosterone-antagonistic activity in adrenalectomised rats (urine volume, sodium and potassium excretion); type: in vivo, Female Holtzmann rats; settings: for Volume (urine volume) in %, based on control animals / [K+] (potassium excretion) in %, based on control animals / [Na+] (sodium excretion) in %, based on control animals: 1 mg/kg p.o., 30 min before aldosterone s.c., urine collected 3 hours, vs animals treated only with aldosterone
Procedure: If compounds of formula I are administered to the animals before the treatment with aldosterone, then there is observed, in comparison to animals which are treated only with aldosterone (control animals), a pronounced increase of the sodium excretion (i.e. the sodium retention caused by aldosterone is antagonised), whereas the potassium excretion and the urine volume are influenced to a lesser extent.
The standard experiment is carried out as follows:
Female Holtzmann rats (150-180 g) are bilaterally adrenalectomised 70 to 74 hours before the beginning of the experiment. After the operation, the animals receive a customary rat dry feed and 0.9% sodium chloride solution for drinking. 16-17 hours before the beginning of the experiment the feed is removed from the animals, but they can subsequently drink, as before, 0.9% sodium chloride solution ad libitum. At the beginning of the experiment the substance to be tested as an aldosterone-antagonist is administered to the animals by means of a stomach probe. 30 minutes later the animals receive a subcutaneous injection of […] of aldosterone. After a further 90 minutes, the urinary bladders of the animals are emptied by careful suprapubic pressure, whereupon the animals are placed individually in metabolic cages without food and without drink. The urine of the animals is then collected for 3 hours, whereupon their urinary bladders are once more emptied. The spontaneously excreted urine and the remaining urine obtained at the conclusion of the experiment by pressing-out the urinary bladders are collected in graduated centrifuge glasses. Sodium and potassium concentrations in the urine are determined with a flame photometer.
(§1) The following Table contains results obtained in the previously described experiment with representative compounds of formula I. In this Table there are given for each of the compounds in question the dosage administered (in mg/kg p.o.) as well as the percentage variation in the urine volume, the sodium excretion and the potassium excretion in comparison with the control animals (i.e. in comparison with the animals treated only with aldosterone). Moreover, the Table contains data concerning the acute toxicity of the compounds investigated (LD 50 in mg/kg in the case of single oral administration to mice).

[1] = Acute toxicity, single oral administration to mice; settings: mouse, in vivo, single oral administration (p.o.)
From the text: as §1

Compound | Volume (urine volume) in %, based on control animals (aldosterone) | [K+] (potassium excretion) in %, based on control animals (aldosterone) | [Na+] (sodium excretion) in %, based on control animals (aldosterone) | LD50 [1] | excreted urine volume after aldosterone (aldosterone; vs untreated animals, in words) | potassium excretion after aldosterone (aldosterone; vs untreated animals, in words) | sodium excretion after aldosterone (aldosterone; vs untreated animals, in words)
CC1N=C(c2ccccc2F)c2cc(C(C)N)ccc2N(C)C1=O (stereo not drawn) [Example 2, 7-(1-aminoethyl)-5-(o-fluorophenyl)-1,3-dihydro-1,3-dimethyl-2H-1,4-benzodiazepin-2-one] | 169% | 102% | 298% | 625 mg/kg | – | – | –
CCN1C(=O)CNC(c2ccccc2F)c2cc(C(C)=NO)ccc21 (stereo not drawn) [Example 5] | 157% | 87% | 247% | > 5000 mg/kg | – | – | –
CCN1C(=O)CNC(c2ccccc2F)c2cc(C(C)NCCO)ccc21 (stereo not drawn) [Example 6, 1-ethyl-5-(o-fluorophenyl)-1,3,4,5-tetrahydro-7-/1-[(2-hydroxyethyl)-amino]ethyl/-2H-1,4-benzodiazepin-2-one] | 150% | 93% | 306% | 4000 mg/kg | – | – | –
CCN1C(=O)CNC(c2ccccc2F)c2cc(C(C)N(C)C)ccc21 (stereo not drawn) [Example 7a, 7-[1-(dimethylamino)ethyl]-1-ethyl-5-(o-fluorophenyl)-1,3,4,5-tetrahydro-2H-1,4-benzodiazepin-2-one] | 147% | 90% | 252% | 500 mg/kg | – | – | –
CCN1C(=O)CN=C(c2ccccc2F)c2cc(C(C)OCOC)ccc21 (stereo not drawn) [Example 9a, 1-ethyl-5-(o-fluorophenyl)-1,3-dihydro-7-[1-(methoxymethoxy)ethyl]-2H-1,4-benzodiazepin-2-one] | 138% | 93% | 359% | 500 mg/kg | – | – | –
CN1C(=O)CN=C(c2ccccc2)c2cc(CNC(=O)NCCO)ccc21 [Example 22, 1-[(2,3-dihydro-1-methyl-2-oxo-5-phenyl-1H-1,4-benzodiazepin-7-yl)methyl]-3-(2-hydroxyethyl)urea] | 130% | 82% | 224% | > 5000 mg/kg | – | – | –
C[C@]12CCC(=O)C=C1CC[C@@H]1[C@@H]2[C@@H](O)C[C@]2(C=O)[C@@H](C(=O)CO)CC[C@@H]12 [aldosterone, reference compound] | – | – | – | – | reduction of the excreted urine volume | increased potassium excretion | pronounced reduction of the sodium excretion
